Measured values from patent US20040247577A1, “Method and composition for inhibiting heparanase activity” (priority 2001, published 2004).

How the values were obtained:
lung metastasis = conditions: cited from earlier work; for tumor growth and angiogenesis: Parish et al. 1999; for incidence of lung metastasis: experimental animals
mouse heparanase = target: T1, mouse heparanase (Mus musculus, UniProt Q6YGZ1); assay: Inhibition of recombinant mouse heparanase activity; assay type: biochemical
T1 construct: heterodimer of the 50 kDa polypeptide (Lys^150-Ile^535) and the 8 kDa peptide (Asp^28-Lys^100); made in house
T1 sequence (Q6YGZ1 150-535): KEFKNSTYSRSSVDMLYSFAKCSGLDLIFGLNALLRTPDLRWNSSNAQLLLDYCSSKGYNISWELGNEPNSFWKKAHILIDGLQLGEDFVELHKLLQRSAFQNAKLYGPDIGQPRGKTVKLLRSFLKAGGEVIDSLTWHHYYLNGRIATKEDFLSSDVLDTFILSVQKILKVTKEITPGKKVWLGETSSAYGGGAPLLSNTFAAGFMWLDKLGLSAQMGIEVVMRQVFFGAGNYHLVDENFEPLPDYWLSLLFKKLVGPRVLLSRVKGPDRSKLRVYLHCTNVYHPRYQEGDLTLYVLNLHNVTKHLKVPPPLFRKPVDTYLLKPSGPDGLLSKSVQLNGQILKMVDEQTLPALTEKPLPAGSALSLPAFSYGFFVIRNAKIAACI
T1 sequence (Q6YGZ1 28-100): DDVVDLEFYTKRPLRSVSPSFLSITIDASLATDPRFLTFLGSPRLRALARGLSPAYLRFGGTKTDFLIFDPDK
Procedure: Polypeptide samples were mixed with 25 μl of ^35S-ECM-HSPG (a generous gift from Dr. Israel Vlodavsky, The Hadassah-Hebrew University Hospital, Jerusalem, Israel) in a buffer containing 0.1 M sodium acetate, pH 5.0, 0.01% Triton X-100. After overnight incubation at 37° C., the samples were loaded onto a Superose 12 column (0.7×25 cm, 0.5 ml/min) and the radioactivity of the fractions (0.25 ml/fraction) were measured in a β-scintillation counter. The enzymatic activity was also studied for the ability to degrade HS. For this purpose, ^3H-HS-Sepharose (6.25 nM) was substituted as the substrate in the heparanase reaction, and the radioactivity released into the reaction buffer after overnight incubation was determined.

human heparanase = target: T2, human heparanase (Homo sapiens, UniProt Q9Y251); conditions: cited from earlier work
T2 sequence (Q9Y251 158-543): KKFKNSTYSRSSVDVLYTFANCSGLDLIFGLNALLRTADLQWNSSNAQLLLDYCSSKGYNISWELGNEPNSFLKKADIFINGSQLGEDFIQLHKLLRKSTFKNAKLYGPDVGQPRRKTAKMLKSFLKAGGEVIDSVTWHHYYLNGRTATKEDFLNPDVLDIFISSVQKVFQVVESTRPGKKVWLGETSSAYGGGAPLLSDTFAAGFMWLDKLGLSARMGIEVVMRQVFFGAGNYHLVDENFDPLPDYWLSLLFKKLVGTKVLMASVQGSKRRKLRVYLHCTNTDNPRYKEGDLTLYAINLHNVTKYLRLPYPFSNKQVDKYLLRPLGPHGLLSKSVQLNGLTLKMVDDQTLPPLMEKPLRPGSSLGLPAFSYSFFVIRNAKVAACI
T2 sequence (Q9Y251 36-109): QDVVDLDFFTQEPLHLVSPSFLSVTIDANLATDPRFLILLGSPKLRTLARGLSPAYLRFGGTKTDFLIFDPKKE

[1] = Enzymatic activity of heparanase on radiolabeled HSPG / HS substrates; assay type: biochemical
Procedure: Polypeptide samples were mixed with 25 μl of ^35S-ECM-HSPG (a generous gift from Dr. […] After overnight incubation at 37° C., the samples were loaded onto a Superose 12 column (0.7×25 cm, 0.5 ml/min) and the radioactivity of the fractions (0.25 ml/fraction) were measured in a β-scintillation counter. The enzymatic activity was also studied for the ability to degrade HS. For this purpose, ^3H-HS-Sepharose (6.25 nM) was substituted as the substrate in the heparanase reaction, and the radioactivity released into the reaction buffer after overnight incubation was determined.
To test whether the recombinant mouse heparanase is enzymatically active, purified polypeptide was incubated with metabolically radiolabeled HSPG. The reaction products were analyzed by gel filtration on a Superose 12 column.

## mannopentaose phosphate sulfate [PI-88]
Lung metastasis
  tumor growth and angiogenesis: markedly reduced
  incidence of lung metastasis: markedly reduced

## Laminarin sulfate
Mouse heparanase
  IC50: 50 nM
Mouse heparanase; 1 μM
  inhibition of mouse heparanase activity at 1 μM: completely inhibited
Lung metastasis
  tumor growth and angiogenesis: markedly reduced
  incidence of lung metastasis: markedly reduced
Lung metastasis; in vivo
  tumor metastasis in vivo: inhibit
Human heparanase
  human heparanase activity in vitro: inhibit

## heparin
Mouse heparanase
  inhibition of mouse heparanase enzyme activity (in words): inhibited

B1: mouse heparanase: Recombinant full-length mouse heparanase polypeptide of 535 amino acids, mature form a heterodimer of 50 kDa and 8 kDa (protein, UniProt Q6YGZ1 1-535, looked up)
chain: MLRLLLLWLWGPLGALAQGAPAGTAPTDDVVDLEFYTKRPLRSVSPSFLSITIDASLATDPRFLTFLGSPRLRALARGLSPAYLRFGGTKTDFLIFDPDKEPTSEERSYWKSQVNHDICRSEPVSAAVLRKLQVEWPFQELLLLREQYQKEFKNSTYSRSSVDMLYSFAKCSGLDLIFGLNALLRTPDLRWNSSNAQLLLDYCSSKGYNISWELGNEPNSFWKKAHILIDGLQLGEDFVELHKLLQRSAFQNAKLYGPDIGQPRGKTVKLLRSFLKAGGEVIDSLTWHHYYLNGRIATKEDFLSSDVLDTFILSVQKILKVTKEITPGKKVWLGETSSAYGGGAPLLSNTFAAGFMWLDKLGLSAQMGIEVVMRQVFFGAGNYHLVDENFEPLPDYWLSLLFKKLVGPRVLLSRVKGPDRSKLRVYLHCTNVYHPRYQEGDLTLYVLNLHNVTKHLKVPPPLFRKPVDTYLLKPSGPDGLLSKSVQLNGQILKMVDEQTLPALTEKPLPAGSALSLPAFSYGFFVIRNAKIAACI
modifications: full-length
notes: Recombinant full-length mouse heparanase polypeptide of 535 amino acids, mature form a heterodimer of 50 kDa and 8 kDa
[1]; ^3H-HS at various pH conditions
  pH at which the enzyme was most active: 5.0
[1]; pH 4.0 or 8.0
  enzymatic activity at pH 4.0 or 8.0: Little or no enzymatic activity was detected
[1]; pH 5.0
  amount of heparanase giving maximal degradation of 6.25 nmole ^3H-HS: 50 ng
[1]; pH 7.5 compared with pH 5.0
  additional enzyme necessary for comparable activity: ~10 fold
[1]; undigested substrate eluted in fractions 5-15
  degradation of ^35S-HSPG, elution profile on Superose 12 column: eluted as low-MW fragments in later fractions (16-35)
